From the Kinase Knowledgebase extract (Sharma et al. 2016)

These compounds were tested against EGFR (UniProt P00533).
Chain of EGFR (P00533 whole entry, looked up): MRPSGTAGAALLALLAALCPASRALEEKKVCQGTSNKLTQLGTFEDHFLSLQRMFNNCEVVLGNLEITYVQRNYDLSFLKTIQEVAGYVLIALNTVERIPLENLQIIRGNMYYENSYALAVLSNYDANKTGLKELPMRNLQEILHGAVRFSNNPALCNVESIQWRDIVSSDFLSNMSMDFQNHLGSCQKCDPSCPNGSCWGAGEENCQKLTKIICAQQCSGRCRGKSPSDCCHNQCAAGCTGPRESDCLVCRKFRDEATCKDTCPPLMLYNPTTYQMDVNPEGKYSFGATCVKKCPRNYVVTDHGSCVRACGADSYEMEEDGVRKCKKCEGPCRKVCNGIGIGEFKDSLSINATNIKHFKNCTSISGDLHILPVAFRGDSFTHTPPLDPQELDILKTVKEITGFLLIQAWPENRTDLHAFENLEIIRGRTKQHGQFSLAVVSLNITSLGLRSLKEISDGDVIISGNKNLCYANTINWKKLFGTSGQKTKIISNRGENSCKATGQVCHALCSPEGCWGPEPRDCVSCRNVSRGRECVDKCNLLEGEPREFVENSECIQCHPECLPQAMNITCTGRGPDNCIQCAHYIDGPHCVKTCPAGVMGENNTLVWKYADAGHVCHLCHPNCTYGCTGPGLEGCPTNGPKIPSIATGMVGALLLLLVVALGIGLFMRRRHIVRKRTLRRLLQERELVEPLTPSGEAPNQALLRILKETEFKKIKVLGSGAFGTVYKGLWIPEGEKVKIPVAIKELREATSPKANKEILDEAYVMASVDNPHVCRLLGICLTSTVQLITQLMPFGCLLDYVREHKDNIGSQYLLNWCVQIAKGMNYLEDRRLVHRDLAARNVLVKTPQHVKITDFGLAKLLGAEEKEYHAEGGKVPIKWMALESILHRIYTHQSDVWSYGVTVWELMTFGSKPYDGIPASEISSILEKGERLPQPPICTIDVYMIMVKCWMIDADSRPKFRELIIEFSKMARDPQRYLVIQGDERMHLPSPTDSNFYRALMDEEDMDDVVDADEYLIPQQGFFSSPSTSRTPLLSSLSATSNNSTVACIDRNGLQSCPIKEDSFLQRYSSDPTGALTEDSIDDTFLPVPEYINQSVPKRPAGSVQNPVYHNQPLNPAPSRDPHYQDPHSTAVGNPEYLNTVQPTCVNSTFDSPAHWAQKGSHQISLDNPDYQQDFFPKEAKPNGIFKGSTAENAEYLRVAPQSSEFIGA

Structure (SMILES)	IC50 [nM]
O=C(Nc1cccc(Nc2nccc(Nc3cccc(C(F)(F)F)c3)n2)c1)C1CC1	> 10000
COc1ccc(OC)c(-c2cc(Nc3cccc(NC(=O)C4CC4)c3)ncn2)c1	> 10000
O=C(Nc1cccc(Nc2cc(Nc3cccc(C(F)(F)F)c3)ncn2)c1)C1CC1	21
O=C(Nc1cccc(Nc2cc(NCc3ccc(C(F)(F)F)cc3)ncn2)c1)C1CC1	1760
FC(F)(F)c1cccc(Nc2cc(Nc3cccc(C(F)(F)F)c3)ncn2)c1	32
COc1ccc(Nc2cc(Nc3cccc(C(F)(F)F)c3)ncn2)cc1NC(=O)C1CC1	120
O=C(Nc1cccc(Nc2cc(Nc3ccccc3Cl)ncn2)c1)C1CC1	35
CN(c1cccc(NC(=O)C2CC2)c1)c1cc(Nc2cccc(C(F)(F)F)c2)ncn1	> 10000
CN(c1cccc(C(F)(F)F)c1)c1cc(Nc2cccc(NC(=O)C3CC3)c2)ncn1	19
O=C(Nc1cccc(Nc2cc(Oc3cccc(C(F)(F)F)c3)ncn2)c1)C1CC1	14
COc1ccc(Cl)cc1-c1cc(Nc2cccc(NC(=O)C3CC3)c2)ncn1	> 10000
COc1ccc(Nc2cc(Nc3cccc(C(F)(F)F)c3)ncn2)cc1NC(=O)C1CCCCC1	3600
FC(F)(F)c1cccc(Oc2cc(Oc3cccc(C(F)(F)F)c3)ncn2)c1	> 10000
O=C(Nc1cccc(Nc2ccnc(Nc3cccc(C(F)(F)F)c3)n2)c1)C1CC1	> 10000
Cc1ccccc1Nc1cc(Nc2cccc(NC(=O)C3CC3)c2)ncn1	7
FC(F)(F)c1cccc(Nc2ccnc(Nc3cccc(C(F)(F)F)c3)c2)c1	> 10000

Each compound was assayed against EGFR, P00533 [L858R].
Chain of EGFR, P00533 [L858R] (P00533 whole entry L858R, looked up): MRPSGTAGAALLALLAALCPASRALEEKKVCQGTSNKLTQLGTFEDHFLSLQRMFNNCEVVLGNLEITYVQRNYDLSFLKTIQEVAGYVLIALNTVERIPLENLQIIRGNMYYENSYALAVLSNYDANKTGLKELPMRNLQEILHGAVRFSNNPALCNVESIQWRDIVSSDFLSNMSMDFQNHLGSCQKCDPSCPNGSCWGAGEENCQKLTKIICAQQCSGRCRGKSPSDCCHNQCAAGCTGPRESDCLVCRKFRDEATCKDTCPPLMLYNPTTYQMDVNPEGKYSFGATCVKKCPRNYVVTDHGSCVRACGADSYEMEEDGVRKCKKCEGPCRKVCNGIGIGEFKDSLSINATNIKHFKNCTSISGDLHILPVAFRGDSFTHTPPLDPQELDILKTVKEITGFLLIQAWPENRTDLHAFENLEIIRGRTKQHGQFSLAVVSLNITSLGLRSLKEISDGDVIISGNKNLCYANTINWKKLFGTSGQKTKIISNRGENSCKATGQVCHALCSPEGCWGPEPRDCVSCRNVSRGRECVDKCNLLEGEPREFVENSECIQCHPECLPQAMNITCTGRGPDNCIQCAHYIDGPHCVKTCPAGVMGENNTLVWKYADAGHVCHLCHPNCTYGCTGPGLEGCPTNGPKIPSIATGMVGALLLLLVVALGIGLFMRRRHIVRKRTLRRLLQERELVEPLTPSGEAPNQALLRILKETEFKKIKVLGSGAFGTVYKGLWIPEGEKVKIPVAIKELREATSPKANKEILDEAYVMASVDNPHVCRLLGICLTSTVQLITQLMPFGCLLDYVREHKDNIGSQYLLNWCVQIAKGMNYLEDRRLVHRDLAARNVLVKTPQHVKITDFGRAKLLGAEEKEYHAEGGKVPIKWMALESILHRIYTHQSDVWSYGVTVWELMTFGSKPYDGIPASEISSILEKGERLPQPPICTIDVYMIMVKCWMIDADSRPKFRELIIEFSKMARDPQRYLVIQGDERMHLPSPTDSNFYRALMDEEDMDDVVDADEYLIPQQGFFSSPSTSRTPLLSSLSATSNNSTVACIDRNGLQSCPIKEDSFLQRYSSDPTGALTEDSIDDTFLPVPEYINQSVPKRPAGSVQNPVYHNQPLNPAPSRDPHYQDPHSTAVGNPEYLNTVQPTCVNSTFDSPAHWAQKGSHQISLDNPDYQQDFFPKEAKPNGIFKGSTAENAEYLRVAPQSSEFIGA

Structure (SMILES)	IC50 [nM]
O=C(Nc1cccc(Nc2cc(Nc3cccc(C(F)(F)F)c3)ncn2)c1)C1CC1	63

What follows are compounds tested against EGFR, P00533 [L861Q].
Chain of EGFR, P00533 [L861Q] (P00533 whole entry L861Q, looked up): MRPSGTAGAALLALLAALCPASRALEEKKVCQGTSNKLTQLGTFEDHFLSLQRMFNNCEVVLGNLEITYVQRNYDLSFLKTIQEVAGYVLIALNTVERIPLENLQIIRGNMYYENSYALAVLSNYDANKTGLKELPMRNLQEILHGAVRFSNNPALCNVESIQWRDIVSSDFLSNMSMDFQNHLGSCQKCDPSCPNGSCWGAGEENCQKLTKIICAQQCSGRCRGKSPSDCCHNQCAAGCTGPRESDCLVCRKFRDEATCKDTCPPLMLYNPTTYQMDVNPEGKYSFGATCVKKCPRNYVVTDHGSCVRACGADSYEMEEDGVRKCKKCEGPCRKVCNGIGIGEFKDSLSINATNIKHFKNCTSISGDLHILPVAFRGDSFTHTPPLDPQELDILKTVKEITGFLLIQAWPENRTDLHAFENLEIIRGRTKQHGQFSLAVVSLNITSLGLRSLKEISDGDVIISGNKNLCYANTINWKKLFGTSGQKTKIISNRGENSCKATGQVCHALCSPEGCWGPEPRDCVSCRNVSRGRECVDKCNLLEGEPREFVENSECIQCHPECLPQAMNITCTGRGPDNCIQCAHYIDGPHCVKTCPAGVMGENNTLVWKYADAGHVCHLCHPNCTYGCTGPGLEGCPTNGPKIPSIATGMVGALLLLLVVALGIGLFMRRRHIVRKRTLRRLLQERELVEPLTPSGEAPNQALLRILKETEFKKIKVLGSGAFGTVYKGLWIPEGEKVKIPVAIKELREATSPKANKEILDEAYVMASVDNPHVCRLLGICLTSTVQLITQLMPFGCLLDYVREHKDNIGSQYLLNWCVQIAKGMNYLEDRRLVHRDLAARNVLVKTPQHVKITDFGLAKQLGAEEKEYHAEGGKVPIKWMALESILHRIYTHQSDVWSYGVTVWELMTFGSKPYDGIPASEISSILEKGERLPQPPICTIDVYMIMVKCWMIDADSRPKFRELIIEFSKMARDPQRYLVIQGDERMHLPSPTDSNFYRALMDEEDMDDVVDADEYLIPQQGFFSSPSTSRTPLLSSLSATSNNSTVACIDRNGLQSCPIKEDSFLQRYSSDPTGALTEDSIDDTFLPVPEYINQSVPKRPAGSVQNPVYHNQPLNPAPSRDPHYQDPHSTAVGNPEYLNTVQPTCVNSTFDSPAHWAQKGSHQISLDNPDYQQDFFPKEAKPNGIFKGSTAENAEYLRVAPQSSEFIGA

Structure (SMILES)	IC50 [nM]
O=C(Nc1cccc(Nc2cc(Nc3cccc(C(F)(F)F)c3)ncn2)c1)C1CC1	4
